Earlier results as cited in patent US20160330969A1, “ANTIMICROBIAL COMPOSITIONS AND ARTICLES” (priority 2013, published 2016).

Conditions: decomposition to chlorite and chlorate species, pH 5-8 region

- pH of maximum rate of decomposition: 6.89
Structure (SMILES): OCl [HOCl, hypochlorous acid]
